Data set [1] deals with Leptospira interrogans serovar Portlandvere. As to the kind of experiment: Antimicrobial activity against Leptospira interrogans serovar Portlandvere infected golden Syrian hamster model of acute lethal leptospirosis assessed as survival at 5 mg/kg/day, ip once daily for 5 days administered 2 day after infection. In kind it is functional. The conditions noted are these: for survival at 5 mg/kg/day: route intraperitoneal.

For data set [2] the test system is unchanged. As to the kind of experiment: Antimicrobial activity against Leptospira interrogans serovar Portlandvere infected golden Syrian hamster model of acute lethal leptospirosis assessed as survival at 25 mg/kg/day, ip once daily for 5 days administered 2 day after infection. The conditions noted are these: route intraperitoneal. In kind it is functional.

Data set [3] has the same test system. As to the kind of experiment: Antimicrobial activity against Leptospira interrogans serovar Portlandvere infected golden Syrian hamster model of acute lethal leptospirosis assessed as survival at 50 mg/kg/day, ip once daily for 5 days administered 2 day after infection. To be noted: route intraperitoneal. In kind it is functional.
The test system of the next data set is Syrian golden hamster. As to the kind of experiment: Toxicity against Leptospira interrogans serovar Portlandvere infected golden Syrian hamster model of acute lethal leptospirosis assessed as induction of diarrhea at 50 mg/kg/day, ip once daily for 5 days administered 2 day after infection. In kind it is organism-based, Mesocricetus auratus. Details: route intraperitoneal. To be noted: in vivo.

Activity calls are given as the source filed them. The calls are words filed in the database; no cut-off is given here.

Regarding `C[C@H]1COc2c(N3CCN(C)CC3)c(F)cc3c(=O)c(C(=O)O)cn1c23` [LEVOFLOXACIN], in data set [1], the survival at 5 mg/kg/day stood at 40%. The survival at 25 mg/kg/day in data set [2] is 95%. Further, the survival at 50 mg/kg/day in data set [3] was 95%.
In the case of `O=C(O)c1cn(C2CC2)c2cc(N3CCNCC3)c(F)cc2c1=O` [CIPROFLOXACIN], the outcome in data set [1] was Active. The survival at 25 mg/kg/day in data set [2] is 60%. Moreover, the survival at 50 mg/kg/day in data set [3] amounted to 90%.
For `C[C@H]1c2cccc(O)c2C(=O)C2=C(O)[C@]3(O)C(=O)C(C(N)=O)=C(O)[C@@H](N(C)C)[C@@H]3[C@@H](O)[C@@H]21`, the outcome in data set [1] was Active.
Take `COc1c(N2CCNC(C)C2)c(F)cc2c(=O)c(C(=O)O)cn(C3CC3)c12` (stereo unspecified) [GATIFLOXACIN]: the survival at 5 mg/kg/day in data set [1] is 90%. For the same compound, the survival at 25 mg/kg/day in data set [2] is 100%. Moreover, the Activity result in the data set with Syrian golden hamster is given as “Toxic”. Moreover, in data set [3], the survival at 50 mg/kg/day stood at 60%.
